We go through one compound from article PMC9599816, “Cholesterol Chip for the Study of Cholesterol–Protein Interactions Using SPR” (Biosensors, 2022).

For assay [1], the target named is T1, hedgehog protein, HhC (C-terminal cholesterol-binding domain) (Drosophila melanogaster, UniProt Q02936, H329A).
T1 construct: gene hh; HhC autoprocessing mutant, C-terminal fusion to SUMO-HIS8
Description: SPR, biotinylated cholesterol immobilized on streptavidin chip, […] Langmuir fit. A general note: SPR reads the build-up and loss of mass on a sensor chip optically.

A further assay addresses T2, PTP1B (Homo sapiens, UniProt P18031).
T2 construct: gene PTPN1
Briefly: biochemical.

SMILES strings stand for the structures.

T1 sequence (Q02936 258-471 H329A): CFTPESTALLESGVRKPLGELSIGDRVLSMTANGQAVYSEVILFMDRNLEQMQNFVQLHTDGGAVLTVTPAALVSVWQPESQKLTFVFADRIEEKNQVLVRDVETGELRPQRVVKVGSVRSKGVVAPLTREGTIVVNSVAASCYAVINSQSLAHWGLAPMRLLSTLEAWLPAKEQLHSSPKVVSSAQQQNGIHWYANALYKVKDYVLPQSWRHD
T2 sequence (P18031 1-321): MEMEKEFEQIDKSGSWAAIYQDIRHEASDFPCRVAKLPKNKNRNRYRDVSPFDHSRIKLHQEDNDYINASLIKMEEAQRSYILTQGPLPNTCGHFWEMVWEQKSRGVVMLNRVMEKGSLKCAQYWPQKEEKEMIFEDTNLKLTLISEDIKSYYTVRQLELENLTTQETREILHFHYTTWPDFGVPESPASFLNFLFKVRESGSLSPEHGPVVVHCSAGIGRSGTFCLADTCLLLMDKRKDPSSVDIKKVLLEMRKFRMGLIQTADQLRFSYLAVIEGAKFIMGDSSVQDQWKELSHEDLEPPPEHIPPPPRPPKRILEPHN

Consider `CC(CCC[C@@H](C)[C@H]1CC[C@H]2[C@@H]3CC=C4C[C@@H](O)CC[C@]4(C)[C@H]3CC[C@]12C)c1cn(CCOCCOCCOCCNC(=O)CCCCC2SCC3NC(=O)NC32)nn1` (some centres unmarked) [biotinylated cholesterol], for which the equilibrium dissociation constant (Kd) in assay [1] was ~14 nM; at PTP1B, ~85 nM.

What is called Kd is the concentration at which binding is half-saturated. Low readings indicate tighter binding, high ones weaker binding.
